{
  "source": "patent US7285567B2",
  "about": "“Halogenated benzamide derivatives” (Romark Laboratories, L.C., priority 2005, dated 2007)",
  "key": {"[1]": {"system": "Herpes Simplex type 1: strain F1", "assay": "microbe, parasite or virus in culture", "assay_type": "cell-based, Herpes Simplex virus type 1", "details": "Herpes Simplex type 1 strain F1, HEp-2 cell culture"}, "[2]": {"assay": "Cytotoxicity in 2.2.15 cells (neutral red dye uptake)", "assay_type": "cell-based", "details": "human, 2-fold depression of neutral red dye uptake", "experimental": "(§1) Anti-Hepatitis B Virus (HBV) analyses and an assessment of cytotoxicity were performed in a 9-day assay in the chronically-producing HBV human hepatoblastoma cell line, 2.2.15, as previously described (Korba, B. E. & Gerin, J. L. Use of a standardized cell culture assay to assess activities of nucleosides analogues against hepatitis B virus replication. Antivir. Res. 19, 55-70 (1992)).\n(§2) Values presented (±standard deviations [S.D.]) were calculated by linear regression analysis using data combined from all treated cultures. S.D. were calculated using the standard error of regression generated from linear regression analyses (QuattroPro™). EC50, EC90=drug concentration at which a 2-fold, or a 10-fold depression of HBV DNA (relative to the average levels in untreated cultures), respectively, was observed, CC50=drug concentration at which a 2-fold depression of neutral red dye uptake (relative to the average levels in untreated cultures) was observed, The EC90 values were used for the calculation of the Selectivity Indexes [S.I.] since at least a 3-fold depression of HBV levels is typically required to achieve statistical significance in this assay system. HBV R.I.=intracellular HBV DNA replication intermediate."}, "clostridia": {"system": "clostridia", "assay": "organism not typed", "assay_type": "cell-based", "details": "Clostridia (18 isolates), agar dilution, 48 h"}, "[3]": {"system": "Paramyxovirus: Sendai virus", "assay": "microbe, parasite or virus in culture", "assay_type": "cell-based", "details": "Sendai virus, 37RC cell culture (Table 1)"}, "B. fragilis group": {"system": "B. fragilis group", "assay": "CLSI agar dilution MIC, anaerobic clinical isolates", "assay_type": "cell-based", "details": "Bacteroides fragilis, B. fragilis gp (40 isolates), 48 h, 35° C.", "experimental": "(§3) Methods. Recent clinical anaerobic isolates (2000 to date) comprised 40 B. fragilis group, 26 Prevotella/Porphyromonas, 28 fusobacteria, 16 anaerobic Gram positive cocci, 14 anaerobic Gram-positive non-sporeforming rods and 18 clostridia. CLSI agar dilution MIC methodology with enriched Brucella blood agar and inocula of 1×10^5 cfu/spot was used. Plates were incubated in an anaerobic glove box at 35° C. for 48 h. Results."}, "Prevotella/Porphyromonas": {"system": "Prevotella/Porphyromonas", "assay": "CLSI agar dilution MIC, anaerobic clinical isolates", "assay_type": "cell-based", "details": "Prev/Porphy (26 isolates), 48 h", "experimental": "as §3"}, "fusobacteria": {"system": "fusobacteria", "assay": "CLSI agar dilution MIC, anaerobic clinical isolates", "assay_type": "cell-based", "details": "Fusobacteria (28 isolates), 48 h", "experimental": "as §3"}, "[4]": {"assay": "Cytotoxicity in AVA5 cells (neutral red dye uptake)", "assay_type": "cell-based, human", "details": "human, 2-fold depression of neutral red dye uptake", "experimental": "(§4) Anti-Hepatitis C Virus (HCV) analyses and an assessment of cytotoxicity were performed in a 3-day assay in the HCV replicon-containing human hepatoblastoma cell line, AVA5 (Okuse, C., Rinaudo, J. A., Farrar, K., Wells, F. & Korba, B. E. Enhancement of antiviral activity against hepatitis C virus in vitro by interferon combination therapy. Antivir. Res. 65, 23-34 (2005)) as previously described (Blight, K. J., Kolykhalov, A. A. & Rice, C. M. Efficient initiation of HCV RNA replication in cell culture. Science 290, 1972-1974 (2000)).\n(§5) Values presented (±standard deviations [S.D.]) were calculated by linear regression analysis using data combined from all treated cultures. S.D. were calculated using the standard error of regression generated from the linear regression analyses (QuattroPro™). EC50, EC90=drug concentration at which a 2-fold, or a 10-fold depression of HCV RNA (relative to the average levels in untreated cultures), respectively, was observed. CC50=drug concentration at which a 2-fold depression of neutral red dye uptake was observed relative to the average levels in untreated cultures. Selectivity index=CC50/EC50."}, "[5]": {"system": "Rotavirus: Simian Rotavirus SA-11", "assay": "microbe, parasite or virus in culture", "assay_type": "cell-based", "details": "Simian rotavirus SA-11, MA104 cell culture"}, "[6]": {"system": "anaerobic Gram-positive non-sporeforming rods", "assay": "CLSI agar dilution MIC, anaerobic clinical isolates", "assay_type": "cell-based", "details": "Gram + rods (14 isolates), 48 h"}, "[7]": {"system": "Rhabdovirus: Vesicular stomatitis virus", "assay": "microbe, parasite or virus in culture", "assay_type": "cell-based"}, "[8]": {"system": "anaerobic bacteria (all 142 isolates)", "assay": "CLSI agar dilution MIC, all anaerobic clinical isolates", "assay_type": "cell-based"}, "[9]": {"system": "anaerobic Gram positive cocci", "assay": "CLSI agar dilution MIC, anaerobic clinical isolates", "assay_type": "cell-based", "details": "Gram + cocci (16 isolates), 48 h"}, "Hepatitis B Virus (HBV)": {"system": "Hepatitis B Virus (HBV)", "assay": "HBV replication in 2.2.15 cell culture, 9-day assay", "assay_type": "cell-based", "details": "for EC50 / EC90: Hepatitis B virus, 2.2.15 cells", "experimental": "as §1, §2"}, "Influenza A: PR8 strain": {"system": "Influenza A: PR8 strain", "assay": "microbe, parasite or virus in culture", "assay_type": "cell-based, Influenza A virus"}, "[10]": {"system": "Coronavirus: canine coronavirus strain S-378", "assay": "microbe, parasite or virus in culture", "assay_type": "cell-based", "details": "canine coronavirus strain S-378, A72 cell culture"}, "[11]": {"system": "hepatitis C virus (HCV) replicon", "assay": "HCV replication in AVA5 replicon cell culture, 3-day assay", "assay_type": "cell-based", "details": "AVA5 cells; for EC50: 2-fold depression of HCV RNA; for EC90: 10-fold depression of HCV RNA", "experimental": "as §4, §5"}, "AVA5 cells": {"system": "AVA5 cells", "assay": "Cytotoxicity in AVA5 cells (neutral red dye uptake)", "assay_type": "cell-based, human", "details": "neutral red dye uptake, values for interferon", "experimental": "as §4, §5"}, "[12]": {"details": "All (142 isolates), agar dilution, 48 h"}},
  "note": "Like-named read-outs stand apart in the source and are kept apart here. Marks after values point to notes of the source that are not given here.",
  "data": [
    {"compound": "Cc1cccc(C(=O)Nc2ncc(Br)s2)c1O", "note": "[RM-4819, 2-(hydroxy)-3-methyl-N-(5-bromo-2-thiazolyl)benzamide]", "values": [
      {"measurement": "SI (selectivity index) = CC50/EC50", "setting": "[1]; CC50 by MTT", "value": "> 250"},
      {"measurement": "EC50", "setting": "[1]; Human alphaherpesvirus 1", "value": 600, "unit": "nM"},
      {"measurement": "CC50 at 9 day", "setting": "[2]", "value": "> 1", "unit": "mM"},
      {"measurement": "MIC50", "setting": "clostridia; read-out: MIC50", "value": "> 32", "unit": "µg/mL"},
      {"measurement": "MIC90", "setting": "clostridia; read-out: MIC90", "value": "> 32", "unit": "µg/mL"},
      {"measurement": "EC50", "setting": "[3]; Respirovirus muris", "value": 1300, "unit": "nM"},
      {"measurement": "SI (selectivity index) = CC50/EC50", "setting": "[3]; CC50 by MTT", "value": "> 125"},
      {"measurement": "MIC50", "setting": "B. fragilis group", "value": "> 32", "unit": "µg/mL"},
      {"measurement": "MIC90", "setting": "B. fragilis group", "value": "> 32", "unit": "µg/mL"},
      {"measurement": "MIC50", "setting": "Prevotella/Porphyromonas", "value": "> 32", "unit": "µg/mL"},
      {"measurement": "MIC90", "setting": "Prevotella/Porphyromonas", "value": "> 32", "unit": "µg/mL"},
      {"measurement": "MIC50", "setting": "fusobacteria", "value": "> 32", "unit": "µg/mL"},
      {"measurement": "MIC90", "setting": "fusobacteria", "value": "> 32", "unit": "µg/mL"},
      {"measurement": "CC50 at 3 day", "setting": "[4]", "value": "164 ± 18", "unit": "µM"},
      {"measurement": "EC50", "setting": "[5]; Rotavirus A", "value": 300, "unit": "nM"},
      {"measurement": "SI (selectivity index) = CC50/EC50", "setting": "[5]; CC50 by MTT", "value": "> 500"},
      {"measurement": "MIC50", "setting": "[6]", "value": "> 32", "unit": "µg/mL"},
      {"measurement": "MIC90", "setting": "[6]", "value": "> 32", "unit": "µg/mL"},
      {"measurement": "EC50", "setting": "[7]; MA104", "value": 1600, "unit": "nM"},
      {"measurement": "SI (selectivity index) = CC50/EC50", "setting": "[7]; MA104 cell culture, CC50 by MTT", "value": "> 100"},
      {"measurement": "MIC50", "setting": "[8]; [12]", "value": "> 32", "unit": "µg/mL"},
      {"measurement": "MIC90", "setting": "[8]; [12]", "value": "> 32", "unit": "µg/mL"},
      {"measurement": "Activity against anaerobic bacteria groups (summary in words)", "setting": "[8]; summary of MIC results", "value": "without significant activity"},
      {"measurement": "MIC50", "setting": "[9]", "value": "> 32", "unit": "µg/mL"},
      {"measurement": "MIC90", "setting": "[9]", "value": "> 32", "unit": "µg/mL"},
      {"measurement": "EC50", "setting": "Hepatitis B Virus (HBV); 2-fold depression of HBV DNA, read-out: Extracellular Virion DNA EC50", "value": "3.5 ± 0.5", "unit": "µM"},
      {"measurement": "EC90", "setting": "Hepatitis B Virus (HBV); 10-fold depression of HBV DNA, read-out: Extracellular Virion DNA EC90", "value": "9 ± 0.8", "unit": "µM"},
      {"measurement": "EC50", "setting": "Hepatitis B Virus (HBV); intracellular HBV DNA replication intermediate, 2-fold depression, read-out: Intracellular HBV R.I. EC50", "value": "7.6 ± 0.9", "unit": "µM"},
      {"measurement": "EC90", "setting": "Hepatitis B Virus (HBV); intracellular HBV DNA replication intermediate, 10-fold depression, read-out: Intracellular HBV R.I. EC90", "value": "22 ± 2.6", "unit": "µM"},
      {"measurement": "Selectivity Index R.I.", "setting": "Hepatitis B Virus (HBV); calculated with EC90 values (CC50/EC90), HBV R.I.", "value": ">46"},
      {"measurement": "Selectivity Index Virion", "setting": "Hepatitis B Virus (HBV); calculated with EC90 values (CC50/EC90), virion DNA", "value": ">111"},
      {"measurement": "SI (selectivity index) = CC50/EC50", "setting": "Influenza A: PR8 strain; Influenza A PR8 strain, MDCK cell culture, CC50 by MTT", "value": "> 17"},
      {"measurement": "EC50", "setting": "Influenza A: PR8 strain; Influenza A virus, PR8, MDCK", "value": 9.6, "unit": "µM"},
      {"measurement": "EC50", "setting": "[10]; Alphacoronavirus 1, A-72", "value": 4.9, "unit": "µM"},
      {"measurement": "SI (selectivity index) = CC50/EC50", "setting": "[10]; CC50 by MTT", "value": "> 33"},
      {"measurement": "Selectivity Index", "setting": "[11]; CC50/EC50", "value": 18},
      {"measurement": "EC50", "setting": "[11]; Hepatitis C virus, read-out: EC50", "value": "8.9 ± 0.7", "unit": "µM"},
      {"measurement": "EC90", "setting": "[11]; Hepatitis C virus, read-out: EC90", "value": "79 ± 8.2", "unit": "µM"}
    ]},
    {"compound": "∝ - Interferon", "values": [
      {"measurement": "CC50", "setting": "AVA5 cells", "value": ">10,000*^§ IU/ml"},
      {"measurement": "EC50", "setting": "[11]; values for interferon", "value": "2.2 ± 0.2", "unit": "IU/ml"},
      {"measurement": "EC90", "setting": "[11]; values for interferon", "value": "8.5 ± 0.6", "unit": "IU/ml"}
    ]}
  ]
}
